{"source": "patent US11198741B2", "about": "“Medicines for topic use based on sulfated hyaluronic acid as activating or inhibiting agent of the cytokine activity” (Fidia Farmaceutici S.p.A., priority 2009, dated 2021)", "key": {"[1]": {"target": "T1, fibrin clot (Homo sapiens, UniProt P02671+P02675+P02679)", "T1 sequence (P02671 20-644 isoform P02671-2 limits assumed)": "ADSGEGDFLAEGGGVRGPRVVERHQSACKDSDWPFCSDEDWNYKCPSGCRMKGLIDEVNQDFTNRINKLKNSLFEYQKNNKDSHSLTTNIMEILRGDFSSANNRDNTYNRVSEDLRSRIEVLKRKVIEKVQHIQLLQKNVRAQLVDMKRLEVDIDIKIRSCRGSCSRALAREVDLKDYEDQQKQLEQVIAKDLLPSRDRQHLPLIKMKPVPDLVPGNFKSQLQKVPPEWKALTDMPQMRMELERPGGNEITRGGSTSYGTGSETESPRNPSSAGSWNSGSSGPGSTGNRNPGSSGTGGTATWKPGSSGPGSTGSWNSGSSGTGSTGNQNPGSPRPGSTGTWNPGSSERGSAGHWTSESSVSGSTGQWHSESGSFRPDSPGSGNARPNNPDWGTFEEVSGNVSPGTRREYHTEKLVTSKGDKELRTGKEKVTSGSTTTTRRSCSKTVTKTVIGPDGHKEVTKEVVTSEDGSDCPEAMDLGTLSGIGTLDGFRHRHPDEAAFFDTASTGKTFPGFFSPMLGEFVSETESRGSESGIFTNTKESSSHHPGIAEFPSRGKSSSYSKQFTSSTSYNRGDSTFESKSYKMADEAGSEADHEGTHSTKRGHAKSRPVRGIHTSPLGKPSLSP", "T1 sequence (P02675 45-491 limits assumed)": "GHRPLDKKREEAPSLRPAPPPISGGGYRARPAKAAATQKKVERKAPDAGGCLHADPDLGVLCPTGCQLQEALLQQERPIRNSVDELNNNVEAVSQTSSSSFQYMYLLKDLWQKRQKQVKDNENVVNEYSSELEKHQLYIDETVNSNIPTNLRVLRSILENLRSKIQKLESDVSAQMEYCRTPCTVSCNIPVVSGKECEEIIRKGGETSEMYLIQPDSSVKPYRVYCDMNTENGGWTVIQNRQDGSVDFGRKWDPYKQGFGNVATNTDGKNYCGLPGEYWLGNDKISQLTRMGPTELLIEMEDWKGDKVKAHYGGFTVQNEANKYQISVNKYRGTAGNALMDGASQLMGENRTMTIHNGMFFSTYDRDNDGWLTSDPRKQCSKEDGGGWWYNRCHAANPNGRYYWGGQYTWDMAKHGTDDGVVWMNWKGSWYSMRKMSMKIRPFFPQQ", "T1 sequence (P02679 27-437 isoform P02679-2 limits assumed)": "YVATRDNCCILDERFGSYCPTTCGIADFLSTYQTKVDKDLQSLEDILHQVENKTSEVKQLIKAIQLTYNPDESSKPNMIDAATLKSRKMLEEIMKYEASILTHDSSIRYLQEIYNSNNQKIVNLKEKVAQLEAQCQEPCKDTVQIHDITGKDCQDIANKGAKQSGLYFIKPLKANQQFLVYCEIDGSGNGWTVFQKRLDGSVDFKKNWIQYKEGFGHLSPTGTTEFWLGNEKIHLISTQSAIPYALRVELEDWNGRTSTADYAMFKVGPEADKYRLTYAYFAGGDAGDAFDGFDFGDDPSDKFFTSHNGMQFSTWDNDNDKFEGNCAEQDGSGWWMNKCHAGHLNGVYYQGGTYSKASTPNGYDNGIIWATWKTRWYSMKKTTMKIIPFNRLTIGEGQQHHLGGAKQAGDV", "test": "In vitro fibrinolytic activity: dissolution of fibrin clot in coagulated plasma (absorbance at 405 nm)", "format": "biochemical", "details": "37° C.", "procedure": "The evaluation of the fibrinolytic properties of the products subjected to the test was compared with the acknowledged fibrinolytic activity of the plasmin. In particular, the dissolution rate of the fibrin network and formation of soluble products of the fibrin degradation (FDP), was evaluated.\nIn order to test the fibrinolytic effectiveness of the products subjected to testing, the blood samples were distributed in various test-tubes in which the clot formation was induced.\nThe formation of FDP was then evaluated after the addition of:\nThe freshly removed blood samples were distributed in various test-tubes containing sodium citrate in a ratio of 9:1. The test-tubes were immediately centrifuged at 3,000 rpm for 5 minutes. The plasma obtained was transferred to a new test-tube and immediately used for effecting the FDP evaluation.\nThrombin (300 mU/ml), preheated to 37° C. was added to the plasma samples, as activator of the fibrinogen in inducing the formation of the clot.\nThe following were added to the different cuvettes containing the fibrin clot:\na plasmin solution 0.5 mU, 5 mU, 50 mU, 500 mU and 1 U\nsolutions of HAS3 at concentrations of 25 mg/ml, 50 mg/ml, 100 mg/ml, 150 mg/ml and 200 mg/ml.\nThe absorbance variation at 405 nm for 60 sec. was evaluated spectrophotometrically for each cuvette. The reaction was left to proceed until the complete dissolution of the clot.\nCoagulated plasma, plasmin solution and a solution of HAS3 200 KD and HAS3 20 KD were mixed in a ratio of 1:1 v/v and maintained at an operating temperature of 37° C."}, "[2]": {"tested_on": "TNF receptor", "test": "Inhibition of the binding of 125I-TNF to its receptor in U937 cells (Radioligand Binding)", "parameters": "species or system human", "details": "125I-TNF 0.028 nM, sample 1 mg/ml, 4° C. 3 hours, medium and low MW", "excerpt": "These experiments were effected to evaluate the effectiveness of the samples tested (prepared according to Examples 1-4) on the capacity of inhibiting the binding of TNF to its receptor expressed by cells of the I.S. normally used in vitro for this type of experiment, carried out with iodinated cytokine components for an evaluation in Radioligand Binding assays. The experimental procedure was effected as described in Baglioni C. et al., J Biol Chem, 1985, 260:13395-13397. In short, the line of human histiocytes of the lymphoma U937 was used, with characteristics of monocytes sensitive to the cytotoxic activity of TNF, expressing its relative receptor. […] At the end of the incubation, the cells were centrifuged with dibutylphthalate/dinonylphthalate 2/1 and the pellet obtained was counted in a γ-counter."}}, "data": [{"substance": "sulfated hyaluronic acid degree 3 [HAS3]", "values": [{"measurement": "fibrinolytic activity (expressed in mU equivalents of Plasmin)", "setting": "[1]; 25 mg/ml", "value": 0.5, "unit": "mU"}, {"measurement": "fibrinolytic activity (expressed in mU equivalents of Plasmin)", "setting": "[1]; 50 mg/ml", "value": 3, "unit": "mU"}, {"measurement": "fibrinolytic activity (expressed in mU equivalents of Plasmin)", "setting": "[1]; 100 mg/ml", "value": 10, "unit": "mU"}, {"measurement": "fibrinolytic activity (expressed in mU equivalents of Plasmin)", "setting": "[1]; 150 mg/ml", "value": 50, "unit": "mU"}, {"measurement": "fibrinolytic activity (expressed in equivalents of Plasmin)", "setting": "[1]; 200 mg/ml", "value": 1.1, "unit": "U"}, {"measurement": "inhibition of the binding of TNF to its receptor", "setting": "[2]", "value": 100, "unit": "%"}]}]}
